Source: patent publication US11433053B2, “LSD1 inhibitor and preparation method and application thereof” (CSPC ZHONGQI PHARMACEUTICAL TECHNOLOGY (SHIJIAZHUANG) CO., …, priority 2017, dated 2022)
pIC50: −log10 of the molar value.

Legend:
[1] = Pharmacokinetic evaluation in C57BL/6 mice after intravenous and oral administration; format: in vivo; conditions: male, mouse, plasma; for Cmax / clearance / half-life / Vd: IV 1 mg/kg; for Cmax: oral 2 mg/kg, route of Cmax not stated, read-out: max concentration Cmax; for clearance: read-out: clearance CL; for half-life: read-out: half-life T1/2 (IV, h) (converted); for Vd: read-out: volumes of distribution Vdss; for bioavailability: PO 2 mg/kg vs IV 1 mg/kg, read-out: bioavailability F (%); for AUC(0-t): PO 2 mg/kg, read-out: the area under the plasma concentration-time curve AUC0-last PO
Procedure: Experimental purposes: To test the pharmacokinetics of compounds in C57BL/6 mice
C57BL/6 mice (male, 7-9 weeks old, Shanghai Slack)
Test the pharmacokinetics characteristics of rodents after intravenous and oral administration in accordance with standard protocols, and the candidate compound was formulated into a clear solution in the experiment. The mice were administered by intravenous injection and orally once. The intravenous and oral vehicle is a 10% aqueous solution of hydroxypropyl β-cyclodextrin or a physiological saline solution. Six male C57BL/6 mice were employed in this assay, three of them were administered intravenously at a dose of 1 mg/kg, plasma samples were collected at 0 h (before administration) and 0.0833, 0.25, 0.5, 1, 2, 4, 7, 24 h after administration. Another three mice were administered by oral gavage at a dose of 2 mg/kg, plasma samples were collected at 0 h (before administration) and 0.5, 1, 2, 3, 4, 6, 24 h after administration. Collect whole blood samples within 24 hours, centrifuge at 3000 g for 15 minutes, separate the supernatant to obtain a plasma sample, 4 times volume of the internal standard acetonitrile solution was added to precipitate the protein. Centrifuge the supernatant and add an equal volume of water and centrifuge to take the supernatant. LC-MS/MS was used to quantitatively analyze plasma concentrations and calculate pharmacokinetic parameters such as max concentration (Cmax), clearance (CL), half-life (T1/2), volumes of distribution (Vdss), the area under the plasma concentration-time curve (AUC0-last), bioavailability (F), etc.

[2] = system: H1417 cells; assay: Cell proliferation inhibitory activity on H1417 cells (CellTiter-Glo, 10 days); format: cell-based, human; conditions: Homo sapiens; for pIC50: NCI-H1417, 240 h, H1417 cells, 10 days incubation; for Emax: NCI-H1417, H1417 cells, highest percentage inhibition of cell viability, read-out: Maximum inhibition percentage (%)
Procedure: Experimental purposes: To test the proliferation inhibitory activities of the test compounds on H1417 cells.
Experimental materials: RPMI 1640 medium, fetal bovine serum, Promega CellTiter-Glo reagent. The H1417 cell line purchased from ATCC. Envision Multi-Label Analyzer (PerkinElmer).
Experimental method: H1417 cells were seeded in a black 384-well plate, 1000 cells per well in […] of cell suspension. The test compounds were diluted 3-fold with Epmotion to the 10th concentration i.e, the compounds were diluted from 10 mmol to […], and a double duplicate well experiment was set. 198 μL medium was added to the middle plate, according to the corresponding position, 2 μL gradient diluted compounds were added to the middle plate. The mixture was mixed evenly and transferred 20 μL per well to the cell plates. The cell plates were incubated in a carbon dioxide incubator for 10 days. 25 μL of Promega CellTiter-Glo reagent per well was added to the cell plate and the mixture was incubated for 10 minutes at room temperature to stabilize the luminescence signal. Readings were performed by PerkinElmer Envision multi-label analyzer.
Data analysis: The original data was converted to the inhibition rate by the equation (Max-Ratio)/(Max-Min)*100%, and the value of IC50 can be obtained by curve fitting with four parameters. (Model 205 in XLFIT5, iDBS)
The growth inhibitory activities of the test compounds on H1417 cells were classified as + for IC50≤100 nM; ++ for IC50>100 nM and ≤500 nM; +++ for IC50>500 nM and ≤1000 nM; the highest percentage inhibition of cell viability was classified as: […]; 90%>B≥70%; 70%>C≥50%.

[3] = molecular target: human LSD1 (Homo sapiens (Human), UniProt O60341); assay: Evaluation of enzyme activity: LSD1 fluorescence coupling enzyme assay (HRP/Amplex Red); format: biochemical; conditions: human LSD1, histone H3(1-21)K4me2 peptide 10 μM, 30 min pre-incubation
Procedure: The purpose of this test is to test the in vitro inhibitory activities of the compounds against LSD1. The enzyme used in this experiment was human LSD1, and the standard substrate was histone H3(1-21)K4me2 peptide (10 μM). HCI-2509 (SP2509) was used as reference compound, and the fluorescence coupling enzyme assay was employed. The production of FAD-dependent H2O2 as a result of demethylase activity of LSD1 was measured by coupling with HRP and Amplex Red. Compounds as well as control compound HCl-2509 were tested in 10-dose IC50 mode with a 3-fold serial dilution in duplicate starting at 10 μm. All compounds were pre-incubated 30 mins with enzyme before added substrate to start reaction. Fluorescence measurement: Ex/Em=535/590 by EnVision.
The test compound's inhibitory activities against LSD11 was classified as: + for IC50≤50 nM; ++ for IC50>50 nM and ≤100 nM; +++ for IC50>100 nM and ≤500 nM, and the results are shown in Table 1.

Cmax [1] [ng/mL]	clearance [1] [mL/min/kg]	half-life [1] [h]	Vd [1] [L/kg]	bioavailability [1] [%]	AUC(0-t) [1] [µM·h]	pIC50 [2]	pIC50 [3]	Compound	Emax [2] [%]
1290	21.9	1.3	1.9	44	1.88	6.30 to 7.00	≥ 7.30	N#Cc1ccc(-c2nc(C3(CN[C@H]4CC4c4ccccc4)CC3)no2)cc1 (stereo partly shown) [Example 64]	90 to 100
2070	10.6	4.2	3	49	3.38	6.30 to 7.00	≥ 7.30	Clc1ccc(-c2nc(C3(CN[C@H]4CC4c4ccccc4)CC3)no2)cc1 (stereo partly shown) [Example 65]	90 to 100
2140	13.1	1.5	1.4	57	3.51	6.00 to 6.30	≥ 7.30	FC(F)(F)c1ccc(-c2nc(C3(CN[C@H]4CC4c4ccccc4)CC3)no2)cn1 (stereo partly shown) [Example 66]	90 to 100
763	43.4	1	0.5	20.6	0.329	6.00 to 6.30		O=C(O)c1ccc(CN2CCC(c3nc(C4(CN[C@@H]5CC5c5ccccc5)CC4)no3)CC2)cc1 (stereo partly shown) [Example 169]	50 to 70
3210	9.9	1.6	0.5	51.5	3.86	6.00 to 6.30		O=C(O)C12CCC(c3nc(C4(CN[C@H]5CC5c5ccccc5)CC4)no3)(CC1)CC2 (stereo partly shown) [Example 177]	50 to 70
						6.30 to 7.00	≥ 7.30	c1ccc(C2C[C@@H]2NCC2(CN[C@@H]3CC3c3ccccc3)CC2)cc1 (stereo partly shown) [Example 198]	50 to 70
						6.00 to 6.30	7.00 to 7.30	NC1(CN[C@H]2CC2c2ccccc2)CC1 (stereo partly shown) [Example 199]	70 to 90
						6.00 to 6.30	6.30 to 7.00	O=C(O)c1ccc(CN2CCC3(CC2)CC(c2nc(C4(CN[C@H]5CC5c5ccccc5)CC4)no2)C3)cc1 (stereo partly shown) [Example 206]	50 to 70
						6.00 to 6.30	≥ 7.30	c1ccc(C2C[C@@H]2NCC2(CN3CC4CNCC4C3)CC2)cc1 (stereo partly shown) [Example 207]	50 to 70
						6.30 to 7.00	≥ 7.30	O=C(C1CC1)N1CCC(c2nc(C3(CN[C@H]4CC4c4ccccc4)CC3)no2)CC1 (stereo partly shown) [Example 208]	70 to 90
815	37.7	2.7	2.6	40.5	1.13	6.00 to 6.30	≥ 7.30	O=C(O)[C@@H]1CCCN1CC1(CN[C@H]2CC2c2ccccc2)CC1 (stereo partly shown) [Example 210]	50 to 70
						6.30 to 7.00	≥ 7.30	C[C@@H]1CCCN1CC1(CN[C@H]2CC2c2ccccc2)CC1 (stereo partly shown) [Example 213]	50 to 70
						6.30 to 7.00	7.00 to 7.30	N[C@@H]1CCC[C@@H](c2nc(C3(CN[C@@H]4C[C@H]4c4ccccc4)CC3)no2)C1 [Example 214]	70 to 90
						≥ 7.00	6.30 to 7.00	C[C@@H]1CN(CC2(CN[C@H]3CC3c3ccccc3)CC2)C[C@H](C)N1 (stereo partly shown) [Example 216]	90 to 100
						6.00 to 6.30	6.30 to 7.00	C[C@@H]1CN(CC2(CN[C@H]3CC3c3ccccc3)CC2)C[C@H](C)O1 (stereo partly shown) [Example 217]	50 to 70
						6.00 to 6.30	≥ 7.30	c1ccc(C2C[C@@H]2NCC2(c3noc(C4CC5(CCNCC5)C4)n3)CC2)cc1 (stereo partly shown) [Example 219]	90 to 100
						6.30 to 7.00	7.00 to 7.30	N[C@@H]1CCC[C@H](c2nc(C3(CN[C@@H]4C[C@H]4c4ccccc4)CC3)no2)C1 [Example 220]	70 to 90
58.5	112	2.97	21.7	35.1	0.273			CC1(c2nc(C3(CN[C@@H]4C[C@H]4c4ccccc4)CC3)no2)CCC(N)CC1 (stereo partly shown) [Example 224]	
						6.30 to 7.00	≥ 7.30	N[C@H]1CC[C@H](Cc2nc(C3(CN[C@H]4CC4c4ccccc4)CC3)no2)CC1 (stereo partly shown) [Example 225]	90 to 100
						≥ 7.00	≥ 7.30	O=C(N1CCC(c2nc(C3(CN[C@H]4CC4c4ccccc4)CC3)no2)CC1)C(F)(F)F (stereo partly shown) [Example 226]	90 to 100
						≥ 7.00	6.30 to 7.00	O=C(O)[C@H](Cc1c[nH]c2ccccc12)NCC1(CN[C@@H]2C[C@H]2c2ccccc2)CC1 [Example 227]	50 to 70
						6.30 to 7.00	6.30 to 7.00	c1ccc([C@@H]2C[C@H]2NCC2(CN3CCCNCC3)CC2)cc1 [Example 230]	50 to 70
497	62.4	0.34	0.99	28	0.37	≥ 7.00	6.30 to 7.00	O=C(O)C1(CN2CCC(c3nc(C4(CN[C@@H]5C[C@H]5c5ccccc5)CC4)no3)CC2)CCC1 [Example 235]	70 to 90
179	72.1	2	10.3	57.5	0.712	≥ 7.00	≥ 7.30	N[C@H]1CC[C@H](c2noc(C3(CN[C@@H]4C[C@H]4c4ccccc4)CC3)n2)CC1 [Example 242]	90 to 100
						≥ 7.00	≥ 7.30	NC1CCC(c2nc(C3(CN[C@@H]4C[C@H]4c4ccccc4)CC3)no2)CC1(F)F (stereo partly shown) [Example 244]	70 to 90
						6.00 to 6.30	≥ 7.30	c1ccc([C@@H]2C[C@H]2NCC2(c3noc(N4CCNCC4)n3)CC2)cc1 [Example 246]	90 to 100
						6.00 to 6.30	≥ 7.30	CN1CCN(c2nc(C3(CN[C@@H]4C[C@H]4c4ccccc4)CC3)no2)CC1 [Example 247]	90 to 100

Compound	Cmax [1] [ng/mL]	clearance [1] [mL/min/kg]	half-life [1] [h]	Vd [1] [L/kg]	bioavailability [1] [%]	AUC(0-t) [1] [µM·h]	pIC50 [2]	pIC50 [3]	Emax [2] [%]
N[C@H]1CC[C@H](c2nc(C3(CN[C@@H]4C[C@H]4c4ccccc4)CCC3)no2)CC1 [Example 233]							6.30 to 7.00	6.30 to 7.00	70 to 90
